From EPA's ToxRefDB 2 come the findings set out here.

The test system of data set [1] is dog. The note with it: Subchronic oral toxicity in nonrodent, beagle, Feed, dose end: 90 day, group: systemic.
The test system of data set [2] is dog. The settings on record: Chronic toxicity, beagle, Oral, Feed, dose end: 12 month, group: systemic.
Data set [3] deals with rabbit. The note with it: Prenatal developmental toxicity study, himalayan, Oral, Gavage/Intubation, dose end: 19 GD.
Data set [4] deals with rat. The note with it: Subchronic oral toxicity in rodents, wistar, Feed, dose end: 90 day, group: systemic.
Data set [5] relates to mouse. The note with it: Carcinogenicity, b6c3f1, Oral, [Not Specified], dose end: 78 week, group: systemic.
Data set [6] has as its system rat. The settings on record: Carcinogenicity, wistar, Oral, Feed, dose end: 104 week, group: systemic.
Data set [7] relates to rat. The note with it: Chronic toxicity, wistar, Oral, Feed, dose end: 104 week, group: systemic.
The subject of data set [8] is rat. The settings on record: Multigenerational reproductive toxicity study, sprague dawley, Oral, Feed, dose end: 2 generation.
The subject of data set [9] is rat. The note with it: Combined chronic toxicity/carcinogenicity, other, Oral, Feed, dose end: 24 month, group: systemic.
Data set [10] has as its system mouse. The note with it: Carcinogenicity; other; Oral; Feed; dose end: 18 month; group: systemic; systemic / in life observation / body weight / body weight.
For data set [11], the system named is rabbit. The settings on record: Prenatal developmental toxicity study, new zealand white, Oral, Capsule, dose end: 18 GD.
Data set [12] deals with mouse. The note with it: Carcinogenicity; other; Oral; Feed; dose end: 18 month; group: systemic; systemic / in life observation / body weight / body weight. The source holds these as a separate data set.
Data set [13] concerns rabbit. The note with it: Prenatal developmental toxicity study, new zealand white, Oral, Capsule, dose end: 18 GD. The source holds these as a separate data set.
The subject of data set [14] is rat. The settings on record: Peri- and post-natal toxicity study (Segment III), sprague dawley, Oral, Gavage/Intubation, dose end: 54 PND.
The test system of data set [15] is rat. The note with it: Other (NonGuideline or Guideline Not Listed), sprague dawley, Oral, Gavage/Intubation, dose end: 20 PND, group: cannot be grouped.
The test system of data set [16] is mouse. The settings on record: Subchronic oral toxicity in rodents, cd1, Feed, dose end: 13 week, group: systemic, systemic / hematology / leukocyte (wbc) count differential / leukocyte (wbc) + systemic / hematology / lymphocyte / lymphocyte + systemic / ….
The subject of data set [17] is mouse. The settings on record: Carcinogenicity, cd1, Oral, Feed, dose end: 18 month.
For data set [18], the system named is rat. The note with it: Combined chronic toxicity/carcinogenicity, sprague dawley, Oral, Feed, dose end: 24 month, group: systemic.
Data set [19] relates to dog. The settings on record: Chronic toxicity, beagle, Oral, Feed, dose end: 60 week, group: cholinesterase.
Setting [20] is: systemic / organ weight / liver / relative to body weight + systemic / pathology microscopic / spleen / hemosiderosis + systemic / ….
[21] abbreviates: systemic / organ weight / liver / relative to body weight + systemic / pathology microscopic / liver / hemosiderosis + systemic / clinical ….
[22] abbreviates: group: developmental, developmental / developmental malformation / bone / full supernumerary + developmental / developmental malformation / bone / fused + ….
Where [23] appears, read: group: maternal, systemic / in life observation / body weight / body weight gain + systemic / in life observation / food consumption / food efficiency + ….
Where [24] appears, read: systemic / clinical chemistry / albumin / albumin + systemic / clinical chemistry / protein / protein.
Where [25] appears, read: systemic / organ weight / liver / absolute + systemic / organ weight / liver / relative to body weight + systemic / pathology microscopic / ….
The mark [26] stands for this setting: systemic / organ weight / kidney / absolute.
Where [27] appears, read: systemic / pathology gross / lymph node / enlarged + systemic / pathology gross / spleen / enlarged + systemic / pathology microscopic / ….
Where [28] appears, read: systemic / clinical chemistry / cholesterol / cholesterol.
The mark [29] stands for this setting: systemic / clinical chemistry / cholesterol / cholesterol + systemic / in life observation / body weight / body weight + systemic / in life ….
The mark [30] stands for this setting: group: offspring, systemic / in life observation / body weight / offspring (pup) weight + systemic / in life observation / body weight / offspring (pup) ….
Where [31] appears, read: group: parental, systemic / in life observation / body weight / body weight + systemic / in life observation / body weight / body weight gain + systemic / in….
[32] abbreviates: group: parental, systemic / in life observation / body weight / body weight gain.
[33] abbreviates: systemic / organ weight / kidney / absolute + systemic / organ weight / kidney / relative to body weight.
The mark [34] stands for this setting: group: developmental, systemic / in life observation / body weight / fetal weight.
The mark [35] stands for this setting: group: maternal, systemic / in life observation / clinical signs / anorexia + systemic / in life observation / clinical signs / no feces + systemic / in life….
The mark [36] stands for this setting: group: maternal, systemic / in life observation / clinical signs / anorexia + systemic / pathology gross / stomach / fluid contents + systemic / pathology ….
Where [37] appears, read: group: developmental, developmental / developmental landmark / preputial separation / preputial separation.
[38] abbreviates: group: parental, systemic / organ weight / [other] / absolute + systemic / organ weight / adrenal gland / absolute + systemic / organ weight / epididymis / ….
The mark [39] stands for this setting: developmental / developmental landmark / preputial separation / preputial separation.
Where [40] appears, read: developmental / developmental malformation / general / [other] + developmental / developmental malformation / penis / [other] + ….
[41] abbreviates: group: cholinesterase, cholinesterase / cholinesterase / cholinesterase / brain cholinesterase (che) + cholinesterase / cholinesterase / cholinesterase / ….
[42] abbreviates: group: systemic, systemic / in life observation / body weight / body weight gain + systemic / in life observation / food consumption / food consumption + ….
[43] abbreviates: systemic / in life observation / body weight / body weight + systemic / in life observation / body weight / body weight gain + systemic / ….
[44] abbreviates: cholinesterase / cholinesterase / cholinesterase / erythrocyte cholinesterase (che) + cholinesterase / cholinesterase / cholinesterase / ….
Setting [45] is: cholinesterase / cholinesterase / cholinesterase / plasma cholinesterase (che).

The term LOAEL denotes the lowest tested level that showed an adverse finding. As a reminder, the NOAEL is the highest dose or exposure tested at which no adverse effect was seen. For `CN1CSC(=S)N(C)C1` [Dazomet], the LOAEL in the data set with dog [1] (systemic / organ weight / liver / relative to body weight + systemic / pathology microscopic / spleen / hemosiderosis) worked out at 7.25 mg/kg/day; with dog [2] (systemic / organ weight / liver / relative to body weight + systemic / pathology microscopic / liver / hemosiderosis), 1.12 mg/kg/day; in the data set on rabbit [3] (setting [22]) it was 45 mg/kg/day; with rabbit [3] (group: maternal, systemic / in life observation / body weight / body weight gain + systemic / in life observation / food consumption / food efficiency) it was 45 mg/kg/day; in the data set on rat [4] (setting [25]), 4.5 mg/kg/day; with mouse [5] (systemic / pathology microscopic / liver / adenoma) it was 15.6 mg/kg/day. The LOAEL was more than 3.71 mg/kg/day with rat [6] (setting [27]) and 3.81 mg/kg/day in the data set with rat [7] (setting [28]). In addition, the LEL in the data set with dog [1] (setting [20]) was determined as 7.25 mg/kg/day; in the data set on dog [2] (setting [21]), 1.12 mg/kg/day; in the data set with rabbit [3] (setting [22]) it was 45 mg/kg/day; in the data set on rabbit [3] (setting [23]) it was 45 mg/kg/day; in the data set with rat [4] (setting [24]), 1.7 mg/kg/day; with mouse [5] (setting [26]), 3.9 mg/kg/day. Further, the LEL was found to be 0.9 mg/kg/day in the data set with rat [6] (systemic / pathology gross / lymph node / enlarged + systemic / pathology gross / spleen / enlarged) and 3.81 mg/kg/day in the data set on rat [7] (setting [28]). The NEL in the data set on dog [1] (setting [20]) was 3.5 mg/kg/day; in the data set with dog [2] (setting [21]), 0.35 mg/kg/day; in the data set on rabbit [3] (setting [22]), 15 mg/kg/day; in the data set on rabbit [3] (setting [23]), 15 mg/kg/day; with rat [4] (setting [24]), less than 1.7 mg/kg/day; with mouse [5] (setting [26]), less than 3.9 mg/kg/day. The values for the NEL in the data set with rat [6] (setting [27]) and with rat [7] (setting [29]) were 0.2 mg/kg/day and 0.94 mg/kg/day, respectively. The NOAEL in the data set on dog [1] (setting [20]) was determined as 3.5 mg/kg/day; in the data set on dog [2] (setting [21]) it was 0.35 mg/kg/day; with rabbit [3] (setting [22]) it was 15 mg/kg/day; in the data set on rabbit [3] (setting [23]), 15 mg/kg/day; in the data set with rat [4] (setting [25]), 1.5 mg/kg/day; in the data set with mouse [5] (systemic / pathology microscopic / liver / adenoma + systemic / in life observation / body weight / body weight + systemic / in life …), 3.9 mg/kg/day. Moreover, the NOAEL was not below 3.71 mg/kg/day in the data set on rat [6] (setting [27]) and 0.94 mg/kg/day in the data set with rat [7] (setting [29]).

With `CC(C)([CH2][Sn]([CH2]C(C)(C)c1ccccc1)([CH2]C(C)(C)c1ccccc1)[O][Sn]([CH2]C(C)(C)c1ccccc1)([CH2]C(C)(C)c1ccccc1)[CH2]C(C)(C)c1ccccc1)c1ccccc1` [Fenbutatin oxide], the LEL in the data set on rat [8] (group: offspring, systemic / in life observation / body weight / offspring (pup) weight) was 5.92 mg/kg/day; with rat [8] (setting [32]) it was 2.39 mg/kg/day; in the data set on rat [9] (setting [33]), 2.5 mg/kg/day; in the data set with mouse [10], 45 mg/kg/day; with rabbit [11] (setting [34]), 10 mg/kg/day; in the data set on rabbit [11] (setting [35]), 5 mg/kg/day. Besides, the LEL in the data set with mouse [12] came to 45 mg/kg/day; with rabbit [13] (setting [34]) it was 10 mg/kg/day; in the data set on rabbit [13] (setting [36]) it was 5 mg/kg/day. Moreover, the LOAEL in the data set with rat [8] (setting [30]) worked out at 17.4 mg/kg/day; in the data set with rat [8] (setting [31]) it was 30 mg/kg/day; with rat [9] (systemic / clinical chemistry / alkaline phosphatase (alp/alk) / alkaline phosphatase (alp/alk)), 15 mg/kg/day; in the data set with mouse [10], 45 mg/kg/day; in the data set on rabbit [11] (setting [34]), 10 mg/kg/day; in the data set on rabbit [11] (setting [35]), 5 mg/kg/day. In addition, the values for the LOAEL in the data set on mouse [12], with rabbit [13] (setting [34]) and in the data set on rabbit [13] (setting [36]) were 45 mg/kg/day, 10 mg/kg/day and 5 mg/kg/day, respectively. Moreover, the NEL in the data set on rat [8] (setting [30]) is 3.18 mg/kg/day; in the data set with rat [8] (setting [32]), less than 2.39 mg/kg/day; in the data set on rat [9] (setting [33]), less than 2.5 mg/kg/day; in the data set on mouse [10], 15 mg/kg/day; in the data set on rabbit [11] (setting [34]), 5 mg/kg/day; with rabbit [11] (setting [35]), 1 mg/kg/day. The NEL in the data set on mouse [12] came out at 15 mg/kg/day; with rabbit [13] (setting [34]), 5 mg/kg/day; in the data set with rabbit [13] (setting [36]), 1 mg/kg/day. Further, the NOAEL turned out to be 5.2 mg/kg/day in the data set on rat [8] (setting [30]); 14.8 mg/kg/day with rat [8] (setting [31]); 5 mg/kg/day in the data set with rat [9] (systemic / clinical chemistry / alkaline phosphatase (alp/alk) / alkaline phosphatase (alp/alk) + systemic / clinical chemistry / urea …); 15 mg/kg/day with mouse [10]; 5 mg/kg/day in the data set on rabbit [11] (setting [34]); 1 mg/kg/day with rabbit [11] (setting [35]). The figures for the NOAEL with mouse [12], in the data set on rabbit [13] (setting [34]) and with rabbit [13] (setting [36]) were 15 mg/kg/day, 5 mg/kg/day and 1 mg/kg/day, respectively.

As for `CC(C)C(=O)Nc1ccc([N+](=O)[O-])c(C(F)(F)F)c1` [Flutamide], in the data set with rat [14] (setting [37]), the LEL was determined as 25 mg/kg/day, the LOAEL is more than 50 mg/kg/day, the NEL is less than 25 mg/kg/day and the NOAEL was not below 50 mg/kg/day. Also, in the data set with rat [14] (setting [38]), the LEL stood at 25 mg/kg/day, the LOAEL was more than 50 mg/kg/day, the NEL is less than 25 mg/kg/day and the no-observed-adverse-effect level (NOAEL) was not below 50 mg/kg/day. In the data set with rat [15] (setting [39]), this compound returned an LEL of 0.4 mg/kg/day and an NEL of less than 0.4 mg/kg/day. For the same compound, in the data set with rat [15] (setting [40]), the LOAEL was more than 10 mg/kg/day and the NOAEL was not below 10 mg/kg/day.

Consider `COc1cc(OC)nc(NC(=O)NS(=O)(=O)c2cc(NC=O)ccc2C(=O)N(C)C)n1` [Foramsulfuron], for which, in the data set on mouse [16], the LEL came out at 1000 mg/kg/day, the LOAEL was more than 1000 mg/kg/day, the NEL is 498 mg/kg/day and the NOAEL was not below 1000 mg/kg/day.

Turning to `CCOP(=S)(OCC)Oc1nc(Cl)n(C(C)C)n1` [Isazofos], the LEL in the data set on mouse [17] (setting [41]) worked out at 4.5 mg/kg/day; in the data set on mouse [17] (setting [42]) it was 37.5 mg/kg/day; in the data set with rat [18] (setting [43]) it was 10 mg/kg/day; in the data set with dog [19] (setting [45]), 0.0015 mg/kg/day. In addition, the LOAEL with mouse [17] (setting [41]) was 4.5 mg/kg/day; in the data set on mouse [17] (setting [42]), 37.5 mg/kg/day; with rat [18] (systemic / in life observation / body weight / body weight + systemic / in life observation / body weight / body weight gain), 10 mg/kg/day; in the data set on dog [19] (setting [44]) it was more than 1.61 mg/kg/day. For the same compound, the NEL with mouse [17] (setting [41]) is 0.15 mg/kg/day; with mouse [17] (setting [42]), 4.5 mg/kg/day; with rat [18] (setting [43]), 0.05 mg/kg/day; in the data set on dog [19] (setting [45]), less than 0.0015 mg/kg/day. The NOAEL in the data set on mouse [17] (setting [41]) was 0.15 mg/kg/day; in the data set on mouse [17] (setting [42]) it was 4.5 mg/kg/day; with rat [18] (setting [43]) it was 0.05 mg/kg/day; in the data set on dog [19] (setting [44]) it was not below 1.61 mg/kg/day.
